These results are taken from patent publication US10065990B2, “Cyclic peptide compound, and preparation method, pharmaceutical composition and use thereof” (HANGZHOU GUANYU BIO-MEDICAL CO., LTD, priority 2013, dated 2018).

One assay concerns the target HDAC2 (Homo sapiens, UniProt Q92769). In words: HDAC biochemical activity measurement (fluorescent substrate deacetylation).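 Further: HDAC2 enzyme with an acetyl-lysine fluorescent substrate, then developer added, fluorescence read at excitation 360 nm and emission 460 nm, inhibition measured across several compound concentrations.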 Particulars: 37° C. 30 minutes.
Assay [1] has as its system MCF-7 (human breast cancer cells). Description: MTT cancer cell growth inhibition. To be noted: Homo sapiens, MCF7, 72 h. It counts as cell-based. In a few lines:
(§1)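 Tumour cells in 10% FBS-supplemented DMEM or RPMI 1640 are plated at 1500 per well, dosed next day with compound (10^−5 through 10^−10 M, final) and kept 72 h. MTT is added for 4 h; dissolved formazan is measured at 570 nm and GI50 determined.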

Assay [2] deals with Huh-7 (human hepatoma cells). In words: MTT cancer cell growth inhibition. To be noted: Homo sapiens, Huh-7, 72 h, MTT, 72 hours incubation, Huh-7 cells; read-out: GI50 Huh-7. It counts as cell-based. In a few lines: as §1
Assay [3] deals with K562 (human leukemia cells). In words: MTT cancer cell growth inhibition. To be noted: Homo sapiens, K562, 72 h, MTT, 72 hours incubation, K562 cells; read-out: GI50 K562. It counts as cell-based. In short, it runs like this: as §1
The subject of assay [4] is DU145 (human prostate cancer cells). In words: MTT cancer cell growth inhibition. It counts as cell-based. To be noted: Homo sapiens, DU-145, 72 h, MTT. In short, it runs like this:
as §1

Assay [5] deals with N-87 (human gastric cancer cells). In words: MTT cancer cell growth inhibition. It counts as cell-based. Particulars: Homo sapiens, 72 h, MTT, 72 hours incubation, N-87 cells; read-out: GI50 N-87. In short, it runs like this: as §1
Assay [6] concerns H1975 (non-small cell lung adenocarcinoma). Description: MTT cancer cell growth inhibition. Particulars: Homo sapiens, NCI-H1975, 72 h, MTT, 72 hours incubation, H1975 cells; read-out: GI50 H1975. It counts as cell-based. In short, it runs like this:
as §1

For assay [7], the system named is lncap (prostate cancer cells). In words: MTT cancer cell growth inhibition. It counts as cell-based. To be noted: Homo sapiens, LNCaP, 72 h, MTT. In a few lines:
as §1

Assay [8] has as its system MOLT-4 (human acute lymphoblastic leukemia cells). Description: MTT cancer cell growth inhibition. To be noted: Homo sapiens, MOLT-4, 72 h, MTT, 72 hours incubation; read-out: GI50 Mol. It counts as cell-based. In short, it runs like this:
as §1

Assay [9] has as its system HCC827 (human non-small cell lung cancer cells). In words: MTT cancer cell growth inhibition. It counts as cell-based. To be noted: Homo sapiens, HCC827, 72 h, MTT, 72 hours incubation, HCC827 cells; read-out: GI50 HCC827. In a few lines:
as §1

The subject of assay [10] is MDA-MB-231 (breast cancer cells). In words: MTT cancer cell growth inhibition. It counts as cell-based. To be noted: Homo sapiens, MDA-MB-231, 72 h, read-out: GI50 MDA-MB-231, MTT, 72 hours incubation, MDA-MB-231 cells. In short, it runs like this:
as §1

Assay [11] has as its system KBM-5 (human chronic myelogenous leukemia). In words: MTT cancer cell growth inhibition. It counts as cell-based. Particulars: Homo sapiens, KBM5, 72 h, MTT, 72 hours incubation, KBM-5 cells; read-out: GI50 KBM-5. In short, it runs like this: as §1
For assay [12], the system named is Hela (human cervical cancer cells). Description: MTT cancer cell growth inhibition. Particulars: Homo sapiens, HeLa, 72 h, MTT. It counts as cell-based. In short, it runs like this: as §1
For assay [13], the system named is KBM5-T315I (human chronic myelogenous leukemia). In words: MTT cancer cell growth inhibition. To be noted: Homo sapiens, 72 h, MTT, 72 hours incubation, KBM5-T315I cells; read-out: GI50 KBM5-T315I. It counts as cell-based. In short, it runs like this: as §1
Assay [14] concerns HT1080 (human fibrosarcoma cells). Description: MTT cancer cell growth inhibition. It counts as cell-based. Particulars: Homo sapiens, HT-1080, 72 h, MTT, 72 hours incubation; read-out: GI50 HT1. In short, it runs like this: as §1
For assay [15], the system named is SGC-7901 (human gastric cancer cells). Description: MTT cancer cell growth inhibition. Particulars: Homo sapiens, SGC-7901, 72 h, MTT, 72 hours incubation, SGC-7901 cells; read-out: GI50 SGC-7901. It counts as cell-based. In a few lines: as §1
The test system of assay [16] is U937 (human leukemia cells). In words: MTT cancer cell growth inhibition. Particulars: Homo sapiens, U-937, 72 h, MTT. It counts as cell-based. In short, it runs like this:
as §1

The test system of assay [17] is Bel-7402 (human hepatoma cells). In words: MTT cancer cell growth inhibition. It counts as cell-based. To be noted: Homo sapiens, Bel-7402, 72 h, MTT, 72 hours incubation, Bel-7402 cells; read-out: GI50 Bel-7402. In a few lines: as §1
For assay [18], the system named is A549 (human lung cancer cells). Description: MTT cancer cell growth inhibition. It counts as cell-based. To be noted: Homo sapiens, A549, 72 h, MTT, 72 hours incubation; read-out: GI50 A54. In a few lines: as §1
For assay [19], the system named is BGC-823 (human gastric cancer cells). Description: MTT cancer cell growth inhibition. It counts as cell-based. Particulars: Homo sapiens, BGC-823, 72 h, MTT. In short, it runs like this:
as §1

The test system of assay [20] is PANC-1 (Pac-1, human pancreatic cancer cells). Description: MTT cancer cell growth inhibition. It counts as cell-based. To be noted: MTT. In a few lines: as §1
[21] abbreviates: 72 hours incubation, read-out: GI50 MCF.
The mark [22] stands for this setting: 72 hours incubation, read-out: GI50 Du1.
Setting [23] is: 72 hours incubation, read-out: GI50 lnca.
Where [24] appears, read: 72 hours incubation, read-out: GI50 Hela.
The mark [25] stands for this setting: 72 hours incubation, read-out: GI50 BG.
Where [26] appears, read: Homo sapiens, PANC-1, 72 h, 72 hours incubation, read-out: GI50 PAN.

Where two headings read alike, the source gives them in different places.

Sequence of HDAC2 (Q92769 whole entry, species assumed): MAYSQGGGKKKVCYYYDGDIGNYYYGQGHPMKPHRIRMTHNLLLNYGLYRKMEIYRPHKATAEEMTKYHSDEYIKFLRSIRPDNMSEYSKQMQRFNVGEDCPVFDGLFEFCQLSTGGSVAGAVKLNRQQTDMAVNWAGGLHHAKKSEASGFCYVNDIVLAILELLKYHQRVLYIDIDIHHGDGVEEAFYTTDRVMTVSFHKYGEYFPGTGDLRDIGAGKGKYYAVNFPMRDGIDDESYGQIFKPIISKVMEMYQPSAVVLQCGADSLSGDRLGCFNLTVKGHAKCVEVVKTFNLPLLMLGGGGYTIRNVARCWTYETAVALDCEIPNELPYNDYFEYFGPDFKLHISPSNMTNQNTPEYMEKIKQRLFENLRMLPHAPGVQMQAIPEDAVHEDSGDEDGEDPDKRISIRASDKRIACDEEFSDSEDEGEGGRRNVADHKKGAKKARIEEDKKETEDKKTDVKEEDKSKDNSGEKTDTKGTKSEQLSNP

Consider `C/C=C1\NC(=O)c2cccc(n2)CCNC(=O)C[C@@H](/C=C/CCS)OC(=O)[C@H](C(C)C)NC1=O` [Compound 146], for which the IC50 (usually the midpoint of a concentration-inhibition curve) on HDAC2 is 34 nM. The GI50 (usually the concentration giving 50% growth inhibition) in assay [1] (setting [21]) was determined as 50 nM; in assay [2], 65 nM; in assay [3], 43 nM; in assay [4] (setting [22]) it was 50 nM; in assay [5], 23 nM; in assay [6] it was 73 nM. For the same compound, the GI50 in assay [7] (setting [23]) was 40 nM; in [8] it was 80 nM; in [9], 45 nM; in assay [10] it was 56 nM; in assay [11] it was 33 nM; in [12] (setting [24]), 40 nM. In addition, the GI50 in assay [13] was 23 nM; in [14] it was 80 nM; in [15] it was 35 nM; in assay [16] (72 hours incubation, read-out: GI50 U93), 30 nM; in assay [17], 35 nM; in assay [18] it was 30 nM.

As to `C/C=C1\NC(=O)c2cccc(n2)CNC(=O)C[C@@H](/C=C/CCSC(=O)CCCCCCC)OC(=O)[C@H](C(C)C)NC1=O` [Compound 1], at HDAC2, the IC50 was determined as 22 nM. In addition, the GI50 in [1] (setting [21]) worked out at 30 nM; in assay [1] (72 hours, present invention, read-out: GI50 MCF7, a) it was 30 nM; in assay [2], 33 nM; in [3], 78 nM; in assay [4] (72 hours, present invention, read-out: GI50 Du145, a), 4 nM; in assay [5], 18 nM. For the same compound, the GI50 in assay [6] worked out at 122 nM; in [19] (setting [25]) it was 60 nM; in assay [19] (72 hours, present invention, read-out: GI50 BGC823, a) it was 60 nM; in assay [7] (72 hours, present invention, read-out: GI50 lncap, a), 9 nM; in assay [20] (setting [26]), 20 nM; in [20] (72 hours, present invention, read-out: GI50 PANC-1, a), 320 nM. Also, the GI50 in assay [9] is 179 nM; in assay [10] it was 95 nM; in assay [11], 37 nM; in [12] (setting [24]), 20 nM; in assay [12] (72 hours, present invention, read-out: GI50 Hela, a), 20 nM; in [13] it was 46 nM. Besides, the GI50 was 10 nM in assay [14]; 53 nM in [15]; 5 nM in assay [16] (72 hours, present invention, read-out: GI50 U937, a); 29 nM in assay [17]; 10 nM in assay [18].

With `C=C1NC(=O)c2cccc(n2)CNC(=O)C[C@@H](/C=C/CCSC(C)=O)OC(=O)[C@H](C(C)C)NC1=O` [Compound 19], the IC50 against HDAC2 worked out at 63 nM. Besides, the GI50 was determined as 80 nM in assay [1] (setting [21]); 92 nM in assay [2]; 26 nM in [3]; 51 nM in assay [5]; 24 nM in assay [6]; 90 nM in [19] (setting [25]). For the same compound, the GI50 in [7] (setting [23]) worked out at 580 nM; in assay [8], 1900 nM; in assay [20] (setting [26]) it was 600 nM; in assay [9], 48 nM; in assay [10] it was 95 nM; in [11], 53 nM. For the same compound, the GI50 in assay [12] (setting [24]) stood at 60 nM; in assay [13], 24 nM; in [14], 70 nM; in assay [15], 52 nM; in assay [17] it was 97 nM; in assay [18], 90 nM.

With `C/C=C1\NC(=O)c2cccc(n2)CNC(=O)C[C@@H](/C=C/CCSC(C)=O)OC(=O)[C@H](CC)NC1=O` [Compound 10], on HDAC2, the IC50 was 67 nM. The GI50 was 60 nM in assay [1] (setting [21]); 51 nM in assay [2]; 73 nM in [3]; 38 nM in assay [5]; 24 nM in [6]; 90 nM in assay [19] (setting [25]). The GI50 in assay [20] (setting [26]) was 80 nM; in [9] it was 26 nM; in assay [10], 98 nM; in assay [11], 61 nM; in [12] (setting [24]), 70 nM; in assay [13], 24 nM. For the same compound, the GI50 in [14] turned out to be 80 nM; in [15] it was 23 nM; in [17] it was 95 nM; in assay [18] it was 60 nM.

As for `C/C=C1\NC(=O)c2nccc(n2)CNC(=O)C[C@@H](/C=C/CCSC(C)=O)OC(=O)[C@H](C)NC1=O` [Example 24], the IC50 on HDAC2 turned out to be 83 nM. The GI50 in [1] (setting [21]) is 50 nM; in assay [2], 51 nM; in [3], 37 nM; in assay [4] (setting [22]) it was 20 nM; in assay [5], 35 nM; in [6], 37 nM. Moreover, the GI50 turned out to be 220 nM in assay [19] (setting [25]); 30 nM in assay [7] (setting [23]); 490 nM in assay [8]; 220 nM in [20] (setting [26]); 31 nM in [9]; 86 nM in assay [10]. Moreover, the GI50 is 68 nM in assay [11]; 500 nM in [12] (setting [24]); 35 nM in assay [13]; 40 nM in [14]; 18 nM in assay [15]; 95 nM in assay [17]. For the same compound, in assay [18], the GI50 amounted to 100 nM.
